Test results published in US20250205260A1, “ADJUNCTIVE TREATMENT OF MYCOBACTERIAL DISEASES” (UNIVERSITY OF SOUTHERN CALIFORNIA, priority 2022, published 2025).
≈ marks a conversion by molar mass, not a printed value.

Test system: ΔtreS (TreS-deficient M. tuberculosis)
Assay type: cell-based, Mycobacterium tuberculosis

SMILES | IC95 ΔtreS [µg/mL]
COc1nc2ccc(Br)cc2cc1[C@@H](c1ccccc1)[C@@](O)(CCN(C)C)c1cccc2ccccc12 [BDQ, bedaquiline] | 0.21 (≈ 0.378 µM)
NNC(=O)c1ccncc1 [INH, isoniazid] | 0.12 (≈ 0.875 µM)
